In patent US6452001B2, “Diazapane derivatives useful as antagonists of neurokinin 1 receptor and methods for their formation” (Hoffmann-La Roche Inc., priority 2000, dated 2002):
Where a name gives a salt, the structure may show the parent alone.

target: T1, human NK1 receptor (Homo sapiens, UniProt P25103); experiment: NK1 receptor binding assay, [3H]substance P displacement; conditions: affinity to the NK-1 receptor; human NK1 receptors in CHO cells, [3H]substance P 0.6 nM
T1 construct: expressed in transfected cells; host or cells: CHO cells infected using the Semliki virus expression system; membrane suspension
Description: The affinity of test compounds for the NK1 receptor was evaluated at human NK1 receptors in CHO cells infected with the human NK1 receptor (using the Semliki virus expression system) and radiolabelled with [^3H]substance P (final concentration 0.6 nM). Binding assays were performed in HEPES buffer (50 mM, pH 7.4) containing BSA (0.04 %) leupeptin (8 μg/ml), MnCl2 (3 mM) and phosphoramidon (2 μM). Binding assays consisted of 250 μl of membrane suspension (1.25×10^5 cells/assay tube), […] of buffer of displacing agent and 125 μl of [^3H]substance P. Displacement curves were determined with at least seven concentrations of the compound. The assay tubes were incubated for 60 min at room temperature after which time the tube contents were rapidly filtered under vacuum through GF/C filters presoaked for 60 min with PEI (0.3 %) with 2×2 ml washed of HEPES buffer (50 mM, pH 7.4). The radioactivity retained on the filters was measured by scintillation counting. All assays were performed in triplicate in at least 2 separate experiments.

T1 sequence (P25103 whole entry): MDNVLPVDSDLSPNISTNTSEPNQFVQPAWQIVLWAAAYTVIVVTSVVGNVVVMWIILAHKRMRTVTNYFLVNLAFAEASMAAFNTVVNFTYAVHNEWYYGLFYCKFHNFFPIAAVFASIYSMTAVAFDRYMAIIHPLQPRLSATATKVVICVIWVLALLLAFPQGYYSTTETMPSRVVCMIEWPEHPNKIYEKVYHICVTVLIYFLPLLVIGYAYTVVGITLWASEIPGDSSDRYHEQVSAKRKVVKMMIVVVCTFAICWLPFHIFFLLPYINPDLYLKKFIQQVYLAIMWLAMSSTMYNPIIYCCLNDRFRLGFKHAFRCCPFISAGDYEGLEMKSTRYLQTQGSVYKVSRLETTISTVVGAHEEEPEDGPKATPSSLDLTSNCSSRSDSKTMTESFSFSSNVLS

Structure (SMILES)	Ki [nM]
O=C1C(Cc2ccc(Cl)c(Cl)c2)n2cnnc2CCN1Cc1cc(C(F)(F)F)cc(C(F)(F)F)c1 (racemic) [Example 20, (RS)-6-(3,5-Bis-trifluoromethyl-benzyl)-4-(3,4-dichloro-benzyl)-7,8-dihydro-6H-1,2,3a,6-tetraaza-azulen-5-one]	2.45
O=C1C(Cc2ccc(Cl)c(Cl)c2)n2c(CCN3CCOCC3)nnc2CCN1Cc1cc(C(F)(F)F)cc(C(F)(F)F)c1 (racemic) [Example 21, (RS)-6-(3,5-Bis-trifluoromethyl-benzyl)-4-(3,4-dichloro-benzyl)-3-(2-morpholin-4-yl-ethyl)-7,8-dihydro-6H-1,2,3a,6-tetraaza-azulen-5-one]	3.89
CN(C)Cc1nnc2n1C(Cc1ccc(Cl)c(Cl)c1)C(=O)N(Cc1cc(C(F)(F)F)cc(C(F)(F)F)c1)CC2 (racemic) [Example 23, (RS)-6-(3,5-Bis-trifluoromethyl-benzyl)-4-(3,4-dichloro-benzyl)-3-dimethylaminomethyl-7,8-dihydro-6H-1,2,3a,6-tetraaza-azulen-5-one]	4.37
CN1CCCCC1c1nnc2n1C(Cc1ccc(Cl)c(Cl)c1)C(=O)N(Cc1cc(C(F)(F)F)cc(C(F)(F)F)c1)CC2 (racemic) [Example 24, (RS)-6-(3,5-Bis-trifluoromethyl-benzyl)-4-(3,4-dichloro-benzyl)-3-(1-methyl-piperidin-2-yl)-7,8-dihydro-6H-1,2,3a,6-tetraaza-azulen-5-one]	5.62
Cc1ccc2ccccc2c1CN1CCC(=O)N[C@@H](Cc2ccc(Cl)c(Cl)c2)C1=O [Example 16, (3S)-3-(3,4-Dichloro-benzyl)-1-(2-methyl-naphthalen-1-yl-methyl)-[1,4]diazepane-2,5-dione]	3.8
COc1ccc2ccccc2c1CN1CCc2nncn2[C@@H](Cc2ccc(Cl)c(Cl)c2)C1=O [Example 19, (4S)-4-(3,4-Dichloro-benzyl)-6-(2-methoxy-naphthalen-1-yl-methyl)-7,8-dihydro-6H-1,2,3a,6-tetraaza-azulen-5-one]	1.74

Further molecules by falling Ki, results first:

Ki [nM]	Structure (SMILES)
7.08	CCCN=C1CCN(Cc2cc(C(F)(F)F)cc(C(F)(F)F)c2)C(=O)C(Cc2ccc(Cl)c(Cl)c2)N1 (racemic) [Example 26, (RS)-1-(3,5-Bis-trifluoromethyl-benzyl)-3-(3,4-dichloro-benzyl)-5-propylimino-[1,4]diazepan-2-one hydrochloride]
5.37	CCOc1ccc2ccccc2c1CN1CCC(=O)NC(Cc2ccc(Cl)c(Cl)c2)C1=O (racemic) [Example 17, (RS)-3-(3,4-Dichloro-benzyl)-1-(2-ethoxy-naphthalen-1-yl-methyl)-[1,4]diazepane-2,5-dione]
3.24	COc1ccc2ccccc2c1CN1CCC(=O)N[C@@H](Cc2ccc(Cl)c(Cl)c2)C1=O [Example 15, (3S)-3-(3,4-Dichloro-benzyl)-1-(2-methoxy-naphthalen-1-yl-methyl)-[1,4]diazepane-2,5-dione]
